Legend:
Felis catus [1] = test: Inhibition of electrical stimulation-induced polysynaptic spinal reflex response in unanesthetized decerebrated cat spinal cord segment at 5 mg/kg, iv relative to control; format: functional
Felis catus [2] = test: Induction of electrical stimulation-induced monosynaptic spinal reflex response in unanesthetized decerebrated cat spinal cord segment at 5 mg/kg, iv relative to control; format: functional
Felis catus [3] = test: Toxicity in cat assessed as motor deficit at 2 to 4 mg/kg, iv; format: organism-based; parameters: dose 2-4 mg/kg, route intravenous; settings: in vivo
Felis catus [4] = test: Toxicity in cat assessed as motor deficit at 10 mg/kg, po; format: organism-based; parameters: dose 10 mg/kg, route oral; settings: in vivo
Felis catus [5] = test: Inhibition of electrical stimulation-induced monosynaptic spinal reflex response in unanesthetized decerebrated cat spinal cord segment at 5 mg/kg, iv relative to control; format: functional
Felis catus [6] = test: Inhibition of electrical stimulation-induced monosynaptic spinal reflex response in unanesthetized decerebrated cat spinal cord segment assessed as duration at 5 mg/kg, iv; format: functional
Felis catus [7] = test: Inhibition of electrical stimulation-induced monosynaptic spinal reflex response in unanesthetized decerebrated cat spinal cord segment assessed as duration at 2 mg/kg, iv; format: functional
Felis catus [8] = test: Inhibition of electrical stimulation-induced monosynaptic spinal reflex response in unanesthetized decerebrated cat spinal cord segment assessed as duration at 10 mg/kg, iv; format: functional
Felis catus [9] = test: Inhibition of electrical stimulation-induced polysynaptic spinal reflex response in unanesthetized decerebrated cat spinal cord segment at 2 mg/kg, iv relative to control; format: functional
Felis catus [10] = test: Inhibition of electrical stimulation-induced polysynaptic spinal reflex response in unanesthetized decerebrated cat spinal cord segment at 10 mg/kg, iv relative to control; format: functional
Felis catus [11] = test: Inhibition of electrical stimulation-induced monosynaptic spinal reflex response in unanesthetized decerebrated cat spinal cord segment at 2 mg/kg, iv relative to control; format: functional
Felis catus [12] = test: Inhibition of electrical stimulation-induced monosynaptic spinal reflex response in unanesthetized decerebrated cat spinal cord segment at 10 mg/kg, iv relative to control; format: functional
Felis catus [13] = test: Inhibition of electrical stimulation-induced polysynaptic spinal reflex response in unanesthetized decerebrated cat spinal cord segment assessed as duration at 5 mg/kg, iv; format: functional
Felis catus [14] = test: Induction of electrical stimulation-induced monosynaptic spinal reflex response in unanesthetized decerebrated cat spinal cord segment assessed as duration at 5 mg/kg, iv; format: functional

For `CN(C)C1CC2=C(C1)C[C@H](O)[C@H](O)C2` (stereo not given in full), the inhibition in vivo at 5 mg/kg (Felis catus [1]) was 0%, the inhibition in vivo at 5 mg/kg (Felis catus [2]) was 0% and the Activity (Felis catus [3]) was “Non-toxic”. The Activity (Felis catus [4]) was “Non-toxic”.
`CN(C)CCCC1C2=C(CC=CC2)CCC1O` (stereo not given) gave an inhibition in vivo at 5 mg/kg (Felis catus [1]) of 0% and an inhibition in vivo at 5 mg/kg (Felis catus [5]) of 0%.
For `OC1CCC2=C(C1)CN(C1CCCCC1)C2` (stereo not given), the inhibition in vivo at 5 mg/kg (Felis catus [1]) was 0%, the Activity (Felis catus [3]) was “Non-toxic” and the Activity (Felis catus [4]) was “Non-toxic”. It also gave an inhibition in vivo at 5 mg/kg (Felis catus [5]) of 0% and a Time (Felis catus [6]) of under 0.25 h.
For `O[C@@H]1CC2=C(CC(N3CCCCC3)CC2)C[C@@H]1O` (relative stereo), the inhibition in vivo at 5 mg/kg (Felis catus [1]) was 0% and the inhibition in vivo at 5 mg/kg (Felis catus [5]) was 0%.
`Cl.OC1CCC2=C(C1)CC(CN1CCCCC1)C2` (stereo not given) was tested, and the inhibition in vivo at 5 mg/kg (Felis catus [1]) was 0%, the Activity (Felis catus [3]) was “Non-toxic” and the Activity (Felis catus [4]) was “Non-toxic”. The inhibition in vivo at 5 mg/kg (Felis catus [5]) was 0% and the Time (Felis catus [6]) was 0.25 h.
For `OC1CC=C(CCN2CCCCC2)CC1O` (stereo not given), the inhibition in vivo at 5 mg/kg (Felis catus [1]) was 0% and the inhibition in vivo at 5 mg/kg (Felis catus [5]) was 0%.
With `O[C@@H]1CC2=C(CC(N3CCCCC3)C2)C[C@@H]1O` (stereo not given in full) the inhibition in vivo at 5 mg/kg (Felis catus [1]) was 0%, the Activity (Felis catus [3]) was “Non-toxic” and the Activity (Felis catus [4]) was “Non-toxic”. It also gave an inhibition in vivo at 5 mg/kg (Felis catus [5]) of 0% and a Time (Felis catus [6]) of under 0.25 h.
In the case of `CC(=O)O[C@H]1CC2=C(CC(N3CCCCC3)C2)C[C@H]1OC(C)=O` (stereo not given in full), the inhibition in vivo at 5 mg/kg (Felis catus [1]) is reported as 0%, the Activity (Felis catus [3]) is reported as “Non-toxic” and the Activity (Felis catus [4]) is reported as “Non-toxic”. The inhibition in vivo at 5 mg/kg (Felis catus [5]) was 50% and the Time (Felis catus [6]) was over 2 h.
In the case of `CCCCN(Cc1ccccc1)C1CC2=C(CC(O)CC2)C1.Cl` (stereo not given), the inhibition in vivo at 5 mg/kg (Felis catus [1]) is reported as 0%, the Activity (Felis catus [3]) is reported as “Non-toxic” and the Activity (Felis catus [4]) is reported as “Non-toxic”. The inhibition in vivo at 5 mg/kg (Felis catus [5]) was 20% and the Time (Felis catus [6]) was 1 h.
`Oc1ccc2c(c1)CC(N1CCCCC1)C2` (stereo not given) was tested, and the inhibition in vivo at 5 mg/kg (Felis catus [1]) was 0%, the Activity (Felis catus [3]) was “Non-toxic” and the Activity (Felis catus [4]) was “Non-toxic”. For the same compound, the inhibition in vivo at 5 mg/kg (Felis catus [5]) was over 80% and the Time (Felis catus [6]) was under 0.25 h.
`O[C@@H]1CC2=C(CC(CN3CCCCC3)C2)C[C@H]1O` (relative stereo) was tested, and the inhibition in vivo at 5 mg/kg (Felis catus [1]) was 0%, the Activity (Felis catus [3]) was “Non-toxic” and the Activity (Felis catus [4]) was “Non-toxic”. For the same compound, the inhibition in vivo at 5 mg/kg (Felis catus [5]) was 20% and the Time (Felis catus [6]) was 0 h.
Compound `OC1CCC2=C(C1)CC(N1CCCCC1)C2` (stereo in doubt; 7) has a Time (Felis catus [7]) of over 2 h.
In the case of `COc1cc(C(=O)OC2CCC3=C(C2)CC(N2CCCCC2)C3)cc(OC)c1OC` (stereo not given), the inhibition in vivo at 5 mg/kg (Felis catus [1]) is reported as 0% and the inhibition in vivo at 5 mg/kg (Felis catus [5]) is reported as 0%.
Compound `O[C@@H]1CC2CC(CN3CCCCC3)CC2C[C@@H]1O` (stereo not given in full) has an inhibition in vivo at 5 mg/kg (Felis catus [1]) of 0% and an inhibition in vivo at 5 mg/kg (Felis catus [5]) of 0%.
`CC(=O)O[C@H]1CC2=C(CC(N(C)C)C2)C[C@@H]1OC(C)=O` (relative stereo) was tested, and the inhibition in vivo at 5 mg/kg (Felis catus [1]) was 0% and the inhibition in vivo at 5 mg/kg (Felis catus [5]) was 0%.
`OC1CCC2=C(C1)CC(N1CCCCC1)C2` (mixture of isomers; 5) showed a Time (Felis catus [7]) of 1 h, a Time (Felis catus [8]) of over 2 h and an inhibition in vivo at 2 mg/kg (Felis catus [9]) of 0%. For the same compound, the inhibition in vivo at 10 mg/kg (Felis catus [10]) was 0%, the Activity (Felis catus [3]) was “Non-toxic” and the Activity (Felis catus [4]) was “Non-toxic”. The “inhibition (INH)” value (Felis catus [11]) was over 80% and the inhibition in vivo at 10 mg/kg (Felis catus [12]) was over 80%.
For `Cl.OC1CCC2=C(C1)CC(CCN1CCCCC1)C2` (stereo not given), the inhibition in vivo at 5 mg/kg (Felis catus [1]) was 0%, the Activity (Felis catus [3]) was “Non-toxic” and the Activity (Felis catus [4]) was “Non-toxic”. For the same compound, the inhibition in vivo at 5 mg/kg (Felis catus [5]) was 20% and the Time (Felis catus [6]) was 0.25 h.
`CC(=O)O[C@@H]1CC2=C(CC(N3CCCCC3)C2)C[C@H]1OC(C)=O` (relative stereo) was tested, and the inhibition in vivo at 5 mg/kg (Felis catus [1]) was 0% and the inhibition in vivo at 5 mg/kg (Felis catus [5]) was 0%.
`CN1CC2=C(C[C@H](O)[C@@H](O)C2)C1` (relative stereo) was tested, and the inhibition in vivo at 5 mg/kg (Felis catus [1]) was 0%, the Activity (Felis catus [3]) was “Non-toxic” and the Activity (Felis catus [4]) was “Non-toxic”. The inhibition in vivo at 5 mg/kg (Felis catus [5]) was 0% and the Time (Felis catus [6]) was under 0.25 h.
For `CC(=O)O[C@H]1CC2=C(C[C@@H]1OC(C)=O)CN(C)C2`, the inhibition in vivo at 5 mg/kg (Felis catus [1]) was 0% and the inhibition in vivo at 5 mg/kg (Felis catus [5]) was 0%.
Compound `CCCCNC1CC2=C(CC(O)CC2)C1` (stereo not given) has an inhibition in vivo at 5 mg/kg (Felis catus [1]) of 0% and an inhibition in vivo at 5 mg/kg (Felis catus [5]) of 0%.
`OC1CCC2=C(C1)CC(N1CCCCC1)C2` (mixture of isomers; 6) was tested, and the Time (Felis catus [7]) was 0.25 h and the “inhibition (INH)” value (Felis catus [11]) was 50%.
For `O[C@H]1CC2=C(CC(N3CCCCC3)C2)C[C@@H]1O` (relative stereo), the inhibition in vivo at 5 mg/kg (Felis catus [1]) was 0%, the Activity (Felis catus [3]) was “Non-toxic” and the Activity (Felis catus [4]) was “Non-toxic”. The inhibition in vivo at 5 mg/kg (Felis catus [5]) was 50% and the Time (Felis catus [6]) was 0.25 h.
For `O[C@@H]1CC2=C(CC(N3CCCCC3)C2)C[C@H]1Oc1ccccc1` (relative stereo), the inhibition in vivo at 5 mg/kg (Felis catus [1]) was 0%, the Activity (Felis catus [3]) was “Non-toxic” and the Activity (Felis catus [4]) was “Non-toxic”. The inhibition in vivo at 5 mg/kg (Felis catus [5]) was 20% and the Time (Felis catus [6]) was under 0.25 h.
`OC1CCC2=C(C1)CC(NC1CCCCC1)C2` (stereo not given) gave an inhibition in vivo at 5 mg/kg (Felis catus [1]) of 0% and an inhibition in vivo at 5 mg/kg (Felis catus [5]) of 0%.
For `O[C@@H]1CC2=C(CC(CN3CCCCC3)C2)C[C@@H]1O` (stereo not given in full), the inhibition in vivo at 5 mg/kg (Felis catus [1]) was 0% and the inhibition in vivo at 5 mg/kg (Felis catus [5]) was 0%.
`Br.OC1CC2=C(CC=CC2)C1CCCN1CCCCC1` (stereo not given) was tested, and the inhibition in vivo at 5 mg/kg (Felis catus [1]) was 0%, the Activity (Felis catus [3]) was “Non-toxic” and the Activity (Felis catus [4]) was “Non-toxic”. It also gave an inhibition in vivo at 5 mg/kg (Felis catus [5]) of 20% and a Time (Felis catus [6]) of 1 h.
For `OC1CCC2=C(C1)CC(N1CCCC1)C2` (stereo not given), the inhibition in vivo at 5 mg/kg (Felis catus [1]) was 0%, the Time (Felis catus [13]) was under 15 min and the Activity (Felis catus [3]) was “Non-toxic”. The Activity (Felis catus [4]) was “Non-toxic”, the inhibition in vivo at 5 mg/kg (Felis catus [5]) was 20% and the Time (Felis catus [6]) was 0.25 h.
In the case of `CC(=O)O[C@@H]1CC2=C(CC(CN3CCCCC3)C2)C[C@H]1OC(C)=O.Cc1ccc(S(=O)(=O)O)cc1` (relative stereo), the inhibition in vivo at 5 mg/kg (Felis catus [1]) is reported as 0%, the Activity (Felis catus [3]) is reported as “Non-toxic” and the Activity (Felis catus [4]) is reported as “Non-toxic”. For the same compound, the inhibition in vivo at 5 mg/kg (Felis catus [5]) was 20% and the Time (Felis catus [6]) was under 0.25 h.
Compound `CC(=O)OC1CC=C(CCN2CCCCC2)CC1OC(C)=O` (stereo not given) has an inhibition in vivo at 5 mg/kg (Felis catus [1]) of 0% and an inhibition in vivo at 5 mg/kg (Felis catus [5]) of 0%.
In the case of `CC(=O)O[C@H]1CC2=C(CCC(N3CCCCC3)C2)C[C@H]1OC(C)=O` (relative stereo), the inhibition in vivo at 5 mg/kg (Felis catus [1]) is reported as 0% and the inhibition in vivo at 5 mg/kg (Felis catus [5]) is reported as 0%.
For `CN(C)CCCC1CC[C@@]2(O)CC=CC[C@]12O` (stereo not given in full), the inhibition in vivo at 5 mg/kg (Felis catus [1]) was 0%, the Activity (Felis catus [3]) was “Non-toxic” and the Activity (Felis catus [4]) was “Non-toxic”. It also gave an inhibition in vivo at 5 mg/kg (Felis catus [5]) of 0%.
`O[C@]12CC=CC[C@]1(O)CC(N1CCCCC1)C2` (relative stereo) showed a Time (Felis catus [13]) of under 15 min, an inhibition in vivo at 5 mg/kg (Felis catus [2]) of 0% and a Time (Felis catus [14]) of under 15 min. For the same compound, the Activity (Felis catus [3]) was “Non-toxic” and the Activity (Felis catus [4]) was “Non-toxic”.
With `CN1CC2=C(C[C@H](O)[C@H](O)C2)C1` the inhibition in vivo at 5 mg/kg (Felis catus [1]) was 0%, the Activity (Felis catus [3]) was “Non-toxic” and the Activity (Felis catus [4]) was “Non-toxic”. For the same compound, the inhibition in vivo at 5 mg/kg (Felis catus [5]) was 0%.
For `CC(=O)O[C@H]1CC2=C(CC(N(C)C)C2)C[C@H]1OC(C)=O.Cc1ccc(S(=O)(=O)O)cc1` (stereo not given in full), the inhibition in vivo at 5 mg/kg (Felis catus [1]) was 0%, the Activity (Felis catus [3]) was “Non-toxic” and the Activity (Felis catus [4]) was “Non-toxic”. For the same compound, the inhibition in vivo at 5 mg/kg (Felis catus [5]) was 0% and the Time (Felis catus [6]) was 1 h.
